# According to the pKa sets of Baltruschat and Czodrowski (2020):
# Values joined by “and” are separate entries in the source; they are usually repeats but may differ in a detail not shown here. Equal entries are not always repeated. Where a SMILES comes first, the peptide text is derived from it.
SMILES,pKa (acidic group),pKa (basic group)
CC(C)(S)C(C(=O)O)n1cc[nH+]c1Cc1ccccc1 (stereo unspecified),1.8,–
[NH3+][C@@H](Cc1c[nH]cn1)C(=O)NCC(=O)[O-],–,5.8
COc1ccc2ncccc2c1,–,5.05
c1ccc(-c2ccc3ncc(CN4CCOCC4)n3n2)cc1,–,6.21
C(C[NH2+]CCc1nnn[n-]1)NCCc1nnn[n-]1,–,6.3
CC(C)(S)[C@@H](C(=O)[O-])n1ccnc1Cc1ccccc1,10.3,6.98
c1ccc2c(c1)C1CCN2C1 (stereo unspecified),–,7.1
CCc1ccc(/N=N/c2ccc(N(C)C)cc2)cc1C,–,2.6
CC(C)(C)OC(=O)NC(CCC(N)=O)C(=O)O (stereo unspecified),3.66,–
CN1CCCN(C)Cc2ccccc2OCCOc2ccccc2C1,–,10.1
CC1CCC(=O)C1=O (stereo unspecified),9.6,–
c1cncc(-c2ccco2)c1,–,4.62
CO[C@H]1C[C@H]1C(=O)O,4.76,–
CC1(C)NC(=S)NC1=O,8.71,–
CCC[NH2+]C(C)C(=O)O (stereo unspecified),2.21,–
O=[N+]([O-])c1cccc(/C=N/O)c1,10.2,–
COc1cc(C=O)ccc1O,7.38,–
Cc1cc(Nc2ccc([O-])cc2)c(C(C)C)cc1O,10.7,–
CNCCC(=O)c1ccccc1,–,9
Cc1nn(C)c(O)c1-c1ccccc1,10.9,–
Cc1ncc2c(c1O)C(O)OC2 (stereo unspecified),8.75,4.3
Oc1ccc2[nH]cnc2c1,10,5.69
c1ccc(C2=Nc3ccccc3CO2)cc1,–,3.48
Cc1ccc(C(=O)O)o1,3.42,–

SMILES,pKa (acidic group),pKa (basic group)
Cn1ncc2c(N)ncnc21,–,4.32
O=[N+]([O-])c1ccc(-c2ccc(O)cc2)cc1,9.01,–
NC(=O)CCc1cccnc1,–,5.21
CSc1nc2ncncc2[nH]1,7.67,2.95
OC[C@@H]1O[C@H](n2cnc3c2ncn2ccnc32)[C@@H](O)[C@H]1O,–,4.1
O=C([O-])c1cc([N+](=O)[O-])ccc1O,10.1,–
CCSC(C)C(=O)O (stereo unspecified),3.8,–
COc1ccc2c(c1)cc(C)n2C,–,0.25
Cn1cnc2c([O-])nc(N)nc21,–,9.92
Oc1ccc(I)cc1,9.32,–
CC(I)C(=O)O (stereo unspecified),3.21,–
[O-]c1[nH+]c(O)nc2nc[nH]c12,7.56,–
CC1CC(=O)CC(=O)O1 (stereo unspecified),–,5.1
c1coc(-c2ccncc2)c1,–,5.6
[S-]c1ncnc2ncncc12,–,6.23
CN(C)c1ccc2cc3c(ccc4ccccc43)nc2c1,–,7.31
[S-]c1nccc[nH+]1,–,1.3
Oc1ccc(Cl)cc1CN1CCOCC1,9.85,6.78
O=C1CCc2ccc(Cl)cc2C1,12.3,–
CCCN(CC(C)O)CC(C)O (stereo unspecified),–,8.9
c1ccc(C2=NCCN2)nc1,–,8.98
O=C(O)c1ccc(-c2nnn[nH]2)cc1,3.63,–
O=C1CSc2ncnc(N3CCOCC3)c2N1,10.4,2.07
CCN1CCC[C@@H]1CNC(=O)c1c(OC)ccc(Cl)c1[O-],–,9.54

SMILES,pKa (acidic group),pKa (basic group)
CCNC(=O)c1ccccn1,–,2.4
NCC(=O)N[C@@H](Cc1c[nH]cn1)C(=O)[O-] (H-Gly-His-OH),–,8.14
O=C1C=CC(=O)c2c(O)cccc21,8.7,–
CC(C)=CCC1C(=O)C(CC=C(C)C)(CC=C(C)C)C(O)(C(=O)[O-])C1=O (stereo unspecified),9.7,–
Cc1ccccc1NC(=O)CN,–,7.81
NOCc1ccccc1,–,4.34
COC(=O)c1ccccn1,–,2.21
CC(=O)N(C)c1nnc(S(N)(=O)=O)s1,7.4,–
CNc1ccc(S(=O)(=O)Nc2nc(C)cs2)cc1,6.63,–
C[NH+](C)CCCCCCCNC(=O)/C=N/O,8.98,–
NCCCBr,–,8.93
[NH3+][C@H]1CCC[C@@H](C(=O)O)C1,3.7,–
CCN(CC)C(=S)NC(=O)c1ccc(C)cc1,8.77,–
C[NH+](C)Cc1cc(F)cc(C[NH+](C)C)c1O,5.77,–
COc1ccc(O)cc1[N+](=O)[O-],8.68,–
Nc1ccc(C(=O)O)cc1,4.84,2.41
[NH3+][C@@H](CCC(=O)O)C(=O)O,2.08,–
CSc1ccnc2ccccc12,–,5.81
Cc1ccc(NC(=S)c2ccccc2)cc1,10.8,–
O=C1COC(=O)C1,3.76,–
CN1CCN(C(c2ccccc2)c2ccccc2)CC1,–,8.05
[NH3+]C(CC(=O)[O-])c1ccccn1 (stereo unspecified),–,2.94
O=[N+]([O-])c1cccc2cn[nH]c12,–,-0.83
Cc1cc(-c2cc(C)[nH+][nH]2)[nH]n1,–,0.4

SMILES,pKa (acidic group),pKa (basic group)
CC(N)CCCc1ccccc1 (stereo unspecified),–,9.99
O=C(O)[C@@H]1O[C@H](Oc2ccc(I)cc2)[C@@H](O)[C@H](O)[C@H]1O,3.28,–
CCC(C)(O)c1cnc(CC(C)C)c(O)[n+]1[O-] (stereo unspecified),5.02,–
OCCCCCc1ccccn1,–,5.93
Nc1cccc2nnccc12,–,2.7
C#CC(C)(C(C)C)N(C)C(C)C (stereo unspecified),–,8.7
[O-]N=C1/C(=N/O)CCC/C1=N\O,11.1,–
[O-]c1cc[n+]([C@H]2O[C@@H](CO)[C@H](O)[C@H]2O)c([O-])n1,–,9.3
CCCC(=O)c1cc(C(C)=O)n[nH]1,9.28,–
CCC(C)(C)N(C)C(C)(C)C,–,11.9
CCOc1ccc2[nH]c(CC)nc2c1,–,6.27
O/N=C\c1ccccc1,11.3,–
[NH3+][C@H]1CC[C@H](C(=O)O)CC1,3.92,–
Cc1ccc(O)c(C(=O)O)c1,3.01,–
CCCCCCCCCCCCCCCNCCCCCCCCCCCCCCC,–,11
Cc1[nH]ccc1C(=O)O,5.8,–
Cc1ccc(N)cc1-c1cc([NH3+])ccc1C,–,3.8
Cc1ccc(C)c(C(=O)O)c1,3.97,–
CC(C)=CC(=O)/C=N/O,8.9,–
CN1C(=O)NCc2[nH]cnc21,11.1,–
Cc1ncc[nH]1,–,7.97
N[C@@H](CC(=O)[O-])C(=O)[O-],–,9.54
Cc1ccc(O)c(C(=O)[O-])c1,14,–
O=[N+]([O-])c1ccc2[nH]c(C(F)(F)Cl)nc2c1,–,0.77

SMILES,pKa (acidic group),pKa (basic group)
Oc1cccc2cnccc12,8.45,5.4
CC[NH+](CC)Cc1cccc(F)c1O,7.26,–
Oc1cc[nH+]nc1,1.07,–
CN(C)/C=N/c1ccccc1[N+](=O)[O-],–,5.65
Cc1ccc(C(O)C(C(=O)O)c2ccc(-c3ccccc3)cc2)cc1 (stereo unspecified),4.24,–
CCN(CC)CC(=O)NCc1ccccc1,–,8.07
O=C(O)CNC(=O)c1cccc(O)c1O,3.5,–
CC1=C(C)C(C(C)C(=O)O)CC1=O (stereo unspecified),4.4,–
O=C([O-])c1cc2cc(Cn3ccnc3)ccc2s1,–,6.77
CCCCCCCCc1c(-c2ccccc2)nn(-c2ccccc2)c1O,7.5,–
O/N=C1\CCCCC\C1=N/O,10.7,–
Cc1cnnc2c(O)cccc12,8.34,3.18
CNC(=S)OC(C)C,11.6,–
[S-]c1ncnc2nc[nH]c12,10.9,7.74
CN1CCN(C(c2ccccc2)c2ccc(Cl)cc2)CC1 (stereo unspecified),–,7.81
C[n+]1ccc2ccc(O)cc2c1,7.09,–
CN(C)CCN(C)CCN(C)C,–,9.55 and 9.4
CC(C)C(N)C(=O)O (stereo unspecified),–,9.58
O=C1NC(=O)c2cc([N+](=O)[O-])ccc21,8.68,–
Nc1cccc(O)c1,9.85,4.29
Nc1ccnc(-c2cccc(Cl)n2)c1,–,7.7
CC(C)(C)c1cc(O)[nH]n1,–,2.9
C=CCN(C)CCCNC(=O)/C=N/[O-],–,9.5
O=C1OCC(O)=C1O,4.4,–

SMILES,pKa (acidic group),pKa (basic group)
c1ccc2c(c1)N1CC[NH+]2CC1,–,2.5
Cc1cc(Cl)cc(Cl)c1O,7.85,–
Cc1c(Cn2ccnc2)oc2ccc(C(=O)[O-])cc12,–,6.08
Nc1nc2cc3c(cc2[nH]1)CCCC3,–,7.69
C[C@H](CCCNCc1ccccc1)[C@H]1CC[C@H]2[C@@H]3[C@@H](O)C[C@@H]4C[C@H](O)CC[C@]4(C)[C@H]3CC[C@]12C,–,9.05
CSCc1ccccn1,–,5.4
Nc1ccc2cc3ccc4ccccc4c3nc2c1,–,6.72
COCCO,14.9,–
Cc1csc(NS(=O)(=O)c2ccc(N)cc2)n1,7.12,–
CC(O)CN(CCN1CCOCC1)CC(C)O (stereo unspecified),–,7.9
Nc1ncnc2c1cnn2CCO,–,4.29
N/C(CC/C(N)=[NH+]/O)=N\O,–,3.11
O=Cc1cccnc1C(=O)O,3.7,–
Nc1cc(/C=C/c2ccccc2)nc2ccccc12,–,9.3
NC(=O)NOCCC([NH3+])C(=O)O (stereo unspecified),2.5,–
Oc1c(Cl)cccc1Cl,6.8,–
O/N=C/C(Cl)=N\O,8.24,–
CNc1cccc2ccccc12,–,3.7
Nc1cnnc2ccccc12,–,6.84
CC(CC(c1ccccc1)c1ccccc1)N1CCOCC1 (stereo unspecified),–,6.9
O=[N+]([O-])c1cccc(/C=N\O)c1,10.7,–
Nc1ccc2[nH]c[nH+]c2c1,–,3.07
NC(=O)C(N)=S,11.5,–
C=CC[NH+](CC=C)CCCNC(=O)/C=N/O,8.14,–

SMILES,pKa (acidic group),pKa (basic group)
O=C(O)c1cc2ccccc2s1,3.1,–
CC(C)c1ccc(C(=O)O)cc1,4.31,–
O=[N+]([O-])c1ccc([O-])c(CN2CCOCC2)c1,–,7.92
[O-]c1ccc(F)cc1CN1CCCCC1,–,11.3
C=C(C)C(=O)OC(C)CN(C)C (stereo unspecified),–,7.96
CCN(CC)c1ccccc1C,–,7.18
c1ccc2c(c1)nnc1ccccc12,–,2.2
O=C(O)c1ccc([N+](=O)[O-])cc1Cl,1.96,–
CN(C)c1ncnc2c1ncn2[C@H]1O[C@@H](CO)[C@H](O)[C@@H]1O,–,3.65
O=C(O)C[C@@H]1NC(=O)CNC1=O,3.93,–
CCC[NH2+]CC(=O)O,2.31,–
CC[NH+](CC)CC(C)Nc1c2ccc(Cl)cc2nc2ccc(OC)cc12 (stereo unspecified),–,7.15
O=C(O)CC1[NH2+]Nc2ccccc21 (stereo unspecified),2.9,–
CCC(C)NCC(C)C (stereo unspecified),–,10.8
CCCCCCCCCCCN,–,10.6
O=C(O)/C=C(\I)c1ccccc1,3.4,–
S=c1[nH]c(SCc2ccccc2)c(-c2ccccc2)[nH]1,9.55,-3.31
CCOC(=O)C[C@H](N)c1ccccc1,–,8.32
Cc1cc(CN)c(O)c(CN)c1,–,9.7
Nc1ccncc1N,–,9.06
